The NIST ThermoML archive (doi:10.1016/j.jct.2018.03.027)
± gives the expanded uncertainty stated by the source.

Assay: mn = molality of the nth substance listed, in mol/kg
Conditions: 100 kPa, Liquid, Pycnometric method

O=C([O-])[O-].[Li+].[Li+] [lithium carbonate] + O
Conditions | mass density [kg/m3]
283.15 K, m1 = 0.1933 | 1007.2 ± 4
298.15 K, m1 = 0.1738 | 1003.8 ± 4
303.15 K, m1 = 0.1676 | 1002.2 ± 4
313.15 K, m1 = 0.1558 | 998.3 ± 4
323.15 K, m1 = 0.1454 | 993.7 ± 4
333.15 K, m1 = 0.1352 | 988.5 ± 4
343.15 K, m1 = 0.1251 | 982.6 ± 4
353.15 K, m1 = 0.1149 | 976.2 ± 4
363.15 K, m1 = 0.106 | 969.4 ± 4
368.15 K, m1 = 0.1015 | 965.2 ± 4
